# In ChEMBL document CHEMBL5584351:
# Activity calls are given as the source filed them. No cut-off for these calls is given here.
# Columns and labels:
# [1] = target: T1, Oxysterols receptor LXR-beta (Homo sapiens, UniProt P55055); assay: Agonist activity at GST tagged LXRbeta (unknown origin) using SRC1 as coactivator peptide incubated for 1 hr by coactivator recruitment based TR-FRET assay
# T1 sequence (P55055 whole entry): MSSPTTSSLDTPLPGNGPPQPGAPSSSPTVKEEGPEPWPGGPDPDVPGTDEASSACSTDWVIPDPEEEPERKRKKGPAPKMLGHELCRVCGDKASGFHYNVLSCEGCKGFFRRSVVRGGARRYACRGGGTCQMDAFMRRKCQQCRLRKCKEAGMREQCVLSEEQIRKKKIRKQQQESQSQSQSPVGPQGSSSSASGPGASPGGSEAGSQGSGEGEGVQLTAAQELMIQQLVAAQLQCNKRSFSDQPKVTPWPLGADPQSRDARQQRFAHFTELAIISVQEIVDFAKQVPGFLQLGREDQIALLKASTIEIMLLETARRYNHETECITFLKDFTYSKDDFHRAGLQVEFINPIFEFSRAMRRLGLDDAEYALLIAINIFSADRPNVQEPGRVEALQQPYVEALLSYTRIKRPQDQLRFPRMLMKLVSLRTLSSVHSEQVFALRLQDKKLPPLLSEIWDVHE
# [2] = target: T2, Oxysterols receptor LXR-alpha (Homo sapiens, UniProt Q13133); assay: Agonist activity at GST tagged LXRalpha (unknown origin) using SRC1 as coactivator peptide incubated for 1 hr by coactivator recruitment based TR-FRET assay
# T2 sequence (Q13133 whole entry): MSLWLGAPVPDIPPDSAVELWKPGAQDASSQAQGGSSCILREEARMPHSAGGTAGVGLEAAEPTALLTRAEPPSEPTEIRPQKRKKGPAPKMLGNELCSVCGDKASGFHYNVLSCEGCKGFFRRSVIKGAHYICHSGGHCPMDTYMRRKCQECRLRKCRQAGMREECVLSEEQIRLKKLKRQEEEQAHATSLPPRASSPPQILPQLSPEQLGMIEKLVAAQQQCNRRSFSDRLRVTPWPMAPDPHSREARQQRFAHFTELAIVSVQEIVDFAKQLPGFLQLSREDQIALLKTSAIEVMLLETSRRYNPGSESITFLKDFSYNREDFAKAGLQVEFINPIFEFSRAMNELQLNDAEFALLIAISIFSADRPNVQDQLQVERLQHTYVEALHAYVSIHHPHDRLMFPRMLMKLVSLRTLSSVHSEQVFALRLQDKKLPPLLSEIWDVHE
# [3] = target: Phospholipid-transporting ATPase ABCA1 (Homo sapiens, UniProt O95477); assay: Activation of ABCA1 (unknown origin)
# [4] = Toxicity in wild type C57BL/6 mouse assessed as change in ABCA1 protein expression in brain at 10 mg/kg,po administrated for 7 days by immunoblotting analysis; assay type: organism-based; settings: in vivo, 168 h, time 7 day
# [5] = system: HepG2; assay: Agonist activity at LXR in human HepG2 cells assessed as upregulation of SREBF1 mRNA expression at 10 uM incubated for 24 hrs by qPCR analysis; assay type: cell-based; settings: filed as agonist
# [6] = target: Phospholipid-transporting ATPase ABCA1 (Mus musculus) (UniProt P41233); assay: Activation of ABCA1 in mouse J774.2 cells assessed as increase in fluorescent-tagged cholesterol efflux at 1 uM incubated for 24 hrs by BODIPY based fluorescence analysis; assay type: cell-based; settings: filed as activator
# [7] = target: T3, Bile acid receptor (Homo sapiens) (UniProt Q96RI1); assay: Agonist activity at FXR LBD (unknown origin) transfected in HEK293T cells by measuring maximal efficacy incubated for 16 hrs by Gal4-reporter gene based luciferase assay; assay type: cell-based
# T3 sequence (whole entry): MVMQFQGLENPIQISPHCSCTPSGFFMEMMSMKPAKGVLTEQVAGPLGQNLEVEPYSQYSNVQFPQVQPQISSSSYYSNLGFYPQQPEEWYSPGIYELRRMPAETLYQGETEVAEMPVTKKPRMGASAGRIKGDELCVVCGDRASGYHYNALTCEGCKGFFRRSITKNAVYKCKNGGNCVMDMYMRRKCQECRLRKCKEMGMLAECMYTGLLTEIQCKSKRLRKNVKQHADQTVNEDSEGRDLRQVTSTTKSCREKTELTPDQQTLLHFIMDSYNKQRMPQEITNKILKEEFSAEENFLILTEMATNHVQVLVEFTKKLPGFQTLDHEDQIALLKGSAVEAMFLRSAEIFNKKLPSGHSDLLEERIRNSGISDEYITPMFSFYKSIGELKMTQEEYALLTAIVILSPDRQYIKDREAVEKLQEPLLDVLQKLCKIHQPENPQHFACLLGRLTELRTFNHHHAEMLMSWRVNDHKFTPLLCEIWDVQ
# Sequence of Phospholipid-transporting ATPase ABCA1 (Mus musculus) (P41233 whole entry, the tested form may be a part): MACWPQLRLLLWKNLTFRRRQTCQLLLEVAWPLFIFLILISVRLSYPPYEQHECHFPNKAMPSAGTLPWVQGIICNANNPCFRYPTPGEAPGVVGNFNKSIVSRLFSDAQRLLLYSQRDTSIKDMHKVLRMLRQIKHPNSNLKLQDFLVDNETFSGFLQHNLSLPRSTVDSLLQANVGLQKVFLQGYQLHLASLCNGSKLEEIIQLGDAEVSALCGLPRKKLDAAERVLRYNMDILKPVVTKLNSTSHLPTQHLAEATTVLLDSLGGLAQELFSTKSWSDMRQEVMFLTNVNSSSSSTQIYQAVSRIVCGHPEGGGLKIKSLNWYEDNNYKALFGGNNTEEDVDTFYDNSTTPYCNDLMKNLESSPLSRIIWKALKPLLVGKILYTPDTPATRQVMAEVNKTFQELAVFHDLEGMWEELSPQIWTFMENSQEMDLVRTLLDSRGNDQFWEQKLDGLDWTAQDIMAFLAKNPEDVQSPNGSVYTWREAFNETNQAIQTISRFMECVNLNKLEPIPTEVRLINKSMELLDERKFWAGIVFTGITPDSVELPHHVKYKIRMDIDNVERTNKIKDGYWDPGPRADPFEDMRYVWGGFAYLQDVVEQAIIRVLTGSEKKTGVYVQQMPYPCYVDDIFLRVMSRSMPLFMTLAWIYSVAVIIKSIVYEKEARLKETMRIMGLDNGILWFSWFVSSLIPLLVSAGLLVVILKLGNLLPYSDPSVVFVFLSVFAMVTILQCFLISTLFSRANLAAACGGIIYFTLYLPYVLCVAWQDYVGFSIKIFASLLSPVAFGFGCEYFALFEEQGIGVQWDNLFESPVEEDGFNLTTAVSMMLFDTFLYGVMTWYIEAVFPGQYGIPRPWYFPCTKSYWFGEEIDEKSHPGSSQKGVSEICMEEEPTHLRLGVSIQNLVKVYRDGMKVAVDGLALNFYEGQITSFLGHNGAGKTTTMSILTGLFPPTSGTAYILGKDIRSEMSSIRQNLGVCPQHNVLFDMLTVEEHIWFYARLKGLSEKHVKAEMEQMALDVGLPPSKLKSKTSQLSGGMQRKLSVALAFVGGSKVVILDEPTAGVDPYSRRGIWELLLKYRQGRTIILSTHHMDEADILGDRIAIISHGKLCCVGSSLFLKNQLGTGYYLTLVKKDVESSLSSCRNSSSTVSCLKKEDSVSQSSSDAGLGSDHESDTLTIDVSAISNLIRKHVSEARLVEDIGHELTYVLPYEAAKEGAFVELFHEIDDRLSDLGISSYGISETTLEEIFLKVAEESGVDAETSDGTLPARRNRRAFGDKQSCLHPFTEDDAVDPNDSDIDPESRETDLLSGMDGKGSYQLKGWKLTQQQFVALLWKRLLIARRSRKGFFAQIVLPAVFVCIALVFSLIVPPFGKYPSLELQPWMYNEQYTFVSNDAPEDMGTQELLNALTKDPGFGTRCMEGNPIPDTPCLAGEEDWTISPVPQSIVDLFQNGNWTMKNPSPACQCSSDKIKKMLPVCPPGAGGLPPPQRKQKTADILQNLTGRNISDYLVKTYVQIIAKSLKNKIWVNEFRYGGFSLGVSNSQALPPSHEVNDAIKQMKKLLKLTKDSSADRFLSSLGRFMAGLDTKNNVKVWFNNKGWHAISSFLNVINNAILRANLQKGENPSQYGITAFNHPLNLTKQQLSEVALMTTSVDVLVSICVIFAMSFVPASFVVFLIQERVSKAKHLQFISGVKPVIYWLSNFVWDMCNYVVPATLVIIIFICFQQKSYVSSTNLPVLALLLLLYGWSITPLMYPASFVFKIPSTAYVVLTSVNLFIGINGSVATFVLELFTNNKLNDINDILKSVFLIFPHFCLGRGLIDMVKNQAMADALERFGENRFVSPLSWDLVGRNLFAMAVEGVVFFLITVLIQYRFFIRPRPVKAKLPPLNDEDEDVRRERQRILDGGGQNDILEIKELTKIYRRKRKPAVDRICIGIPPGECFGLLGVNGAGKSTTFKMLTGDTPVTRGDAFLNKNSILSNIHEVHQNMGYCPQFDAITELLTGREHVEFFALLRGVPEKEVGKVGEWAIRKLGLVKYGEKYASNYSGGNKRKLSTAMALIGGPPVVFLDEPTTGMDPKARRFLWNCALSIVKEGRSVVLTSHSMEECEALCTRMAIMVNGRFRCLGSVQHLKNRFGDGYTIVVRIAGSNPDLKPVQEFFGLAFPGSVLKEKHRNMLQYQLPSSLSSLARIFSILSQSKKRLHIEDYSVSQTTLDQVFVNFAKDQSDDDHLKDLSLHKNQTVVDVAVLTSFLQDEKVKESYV
# Sequence of Phospholipid-transporting ATPase ABCA1 (O95477 whole entry): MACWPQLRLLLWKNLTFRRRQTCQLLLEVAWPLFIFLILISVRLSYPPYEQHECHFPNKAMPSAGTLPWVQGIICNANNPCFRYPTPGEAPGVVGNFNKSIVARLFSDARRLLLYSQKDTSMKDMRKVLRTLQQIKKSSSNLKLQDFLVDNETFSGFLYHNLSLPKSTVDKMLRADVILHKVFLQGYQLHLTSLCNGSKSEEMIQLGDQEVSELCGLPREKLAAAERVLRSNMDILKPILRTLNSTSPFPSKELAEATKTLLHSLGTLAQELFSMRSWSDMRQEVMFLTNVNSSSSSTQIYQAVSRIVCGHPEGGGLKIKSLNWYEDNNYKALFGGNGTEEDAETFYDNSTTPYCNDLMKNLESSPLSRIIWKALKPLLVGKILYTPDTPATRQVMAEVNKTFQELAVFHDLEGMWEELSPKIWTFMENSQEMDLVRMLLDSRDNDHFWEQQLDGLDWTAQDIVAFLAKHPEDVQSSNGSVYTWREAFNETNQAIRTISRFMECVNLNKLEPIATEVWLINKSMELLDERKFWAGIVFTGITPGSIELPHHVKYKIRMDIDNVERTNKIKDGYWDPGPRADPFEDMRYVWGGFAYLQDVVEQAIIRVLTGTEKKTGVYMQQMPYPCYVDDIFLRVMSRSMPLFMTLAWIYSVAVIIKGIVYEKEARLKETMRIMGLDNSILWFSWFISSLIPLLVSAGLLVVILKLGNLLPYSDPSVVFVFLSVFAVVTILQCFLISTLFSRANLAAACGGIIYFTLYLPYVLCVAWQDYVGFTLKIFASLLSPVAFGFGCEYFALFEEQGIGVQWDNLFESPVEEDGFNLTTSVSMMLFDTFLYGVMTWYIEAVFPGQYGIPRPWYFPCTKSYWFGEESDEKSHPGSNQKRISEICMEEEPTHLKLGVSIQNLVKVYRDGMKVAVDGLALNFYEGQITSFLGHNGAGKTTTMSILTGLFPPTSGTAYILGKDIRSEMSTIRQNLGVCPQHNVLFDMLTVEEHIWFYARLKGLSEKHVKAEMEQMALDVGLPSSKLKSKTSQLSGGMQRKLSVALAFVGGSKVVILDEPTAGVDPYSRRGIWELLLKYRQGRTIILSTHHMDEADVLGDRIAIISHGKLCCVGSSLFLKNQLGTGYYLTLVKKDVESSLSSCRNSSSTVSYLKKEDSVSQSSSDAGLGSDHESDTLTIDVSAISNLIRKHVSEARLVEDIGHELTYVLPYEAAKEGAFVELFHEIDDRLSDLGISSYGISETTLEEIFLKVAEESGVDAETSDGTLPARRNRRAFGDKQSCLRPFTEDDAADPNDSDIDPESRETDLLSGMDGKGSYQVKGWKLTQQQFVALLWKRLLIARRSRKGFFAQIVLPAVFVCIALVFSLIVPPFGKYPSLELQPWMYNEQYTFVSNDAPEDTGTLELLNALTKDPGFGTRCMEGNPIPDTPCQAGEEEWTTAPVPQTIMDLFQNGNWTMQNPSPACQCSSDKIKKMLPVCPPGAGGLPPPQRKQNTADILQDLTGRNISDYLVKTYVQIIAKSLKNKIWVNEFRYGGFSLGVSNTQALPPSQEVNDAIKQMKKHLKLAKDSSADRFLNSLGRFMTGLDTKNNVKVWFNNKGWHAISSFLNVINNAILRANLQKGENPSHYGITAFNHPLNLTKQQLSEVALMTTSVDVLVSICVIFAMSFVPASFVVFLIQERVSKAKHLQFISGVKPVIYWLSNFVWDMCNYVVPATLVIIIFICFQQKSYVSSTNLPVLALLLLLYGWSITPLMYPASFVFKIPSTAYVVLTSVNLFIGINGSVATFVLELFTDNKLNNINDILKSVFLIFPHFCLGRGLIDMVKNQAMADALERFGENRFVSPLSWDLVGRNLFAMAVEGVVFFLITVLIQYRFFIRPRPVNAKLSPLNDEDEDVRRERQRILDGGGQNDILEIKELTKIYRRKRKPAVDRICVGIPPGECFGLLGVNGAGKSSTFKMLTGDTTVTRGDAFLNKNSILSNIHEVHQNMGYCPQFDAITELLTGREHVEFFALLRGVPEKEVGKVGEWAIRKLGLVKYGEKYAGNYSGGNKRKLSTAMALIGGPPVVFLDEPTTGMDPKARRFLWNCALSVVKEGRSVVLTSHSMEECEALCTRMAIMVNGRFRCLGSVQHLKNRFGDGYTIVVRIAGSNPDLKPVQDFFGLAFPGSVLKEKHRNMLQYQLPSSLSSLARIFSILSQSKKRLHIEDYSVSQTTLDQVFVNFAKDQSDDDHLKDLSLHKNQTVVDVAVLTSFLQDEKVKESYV
EC50 [1] [µM],EC50 [2] [µM],Structure (SMILES),also measured
,0.95,CCOC(=O)c1cccc(NC(=O)c2sc(Cl)cc2S(=O)(=O)N(C)c2ccc(OCC)c(OC)c2)c1,
0.58,,CCOc1ccc(N(C)S(=O)(=O)c2cc(Cl)sc2C(=O)Nc2cc(Cl)cc(C(=O)OCCOC)c2)cc1OC,
,1,CCOc1ccc(N(C)S(=O)(=O)c2cc(Cl)sc2C(=O)Nc2cc(Cl)cc(C(=O)OCCOCCOC)c2)cc1OC,
,> 25,CCOc1ccc(N(C)S(=O)(=O)c2cc(Cl)sc2C(=O)Nc2cccc(C(=O)OCCOCCOC)c2)cc1OCC,
15,,CCOc1ccc(N(C)S(=O)(=O)c2cc(Cl)sc2C(=O)Nc2cccc(C(=O)OCCOC)c2)cc1OCC,

# The next lines start with the compound.
Structure (SMILES),EC50 [1] [µM],EC50 [2] [µM],also measured
CCOc1ccc(N(C)S(=O)(=O)c2ccsc2C(=O)Nc2cccc(C(=O)OC)c2)cc1,> 25,,
CCOC(=O)c1cccc(-c2nnc(-c3sc(Cl)cc3S(=O)(=O)N(C)c3ccc(OCC)c(OC)c3)o2)c1,,> 25,
CN(CC(=O)Nc1ccc(F)c(F)c1F)C(=O)c1ccc2c(c1)OCCO2,,,EC50 [3]: > 1000 nM
O=C(O)Cc1cccc(OCCCN(Cc2cccc(C(F)(F)F)c2Cl)CC(c2ccccc2)c2ccccc2)c1,,,Activity [4]: Toxic
O=S(=O)(c1ccccc1)N(CC(F)(F)F)c1ccc(C(O)(C(F)(F)F)C(F)(F)F)cc1,,,Activity [5]: Active; Activity [6]: Active; Emax [7]: 35%
CCOC(=O)c1cccc(NC(=O)c2sccc2S(=O)(=O)N(C)c2ccc(OCC)c(OCC)c2)c1,4.5,3.5,
CCOc1ccc(N(C)S(=O)(=O)c2cc(Cl)sc2C(=O)Nc2cc(Cl)cc(C3OCCO3)c2)cc1OC,13,15,
CCCOc1ccc(N(C)S(=O)(=O)c2ccsc2C(=O)Nc2cccc(C(=O)OCC)c2)cc1,11,,
CCOC(=O)c1cccc(NC(=O)c2sc(Cl)cc2S(=O)(=O)N(C)c2ccc(N(C)C)cc2)c1,,11,
CCOC(=O)c1cccc(NC(=O)c2sc(Cl)cc2S(=O)(=O)N(C)c2ccc(OCC)cc2)c1,13,4.8,
